Measured values as given in the OPERA property sets (Mansouri et al. 2018).
Peptide text beside a SMILES is read from it.

SMILES | logP
CCOC(=O)CNC(=O)CNC(=O)CCCCSc1ncnc2nc[nH]c12 | 0.5
CC(=O)C(=Cc1ccc(Br)cc1)C(C)=O | 2.75
Nc1ccc(C(=O)O)c(Br)c1 | 1.49
CCCCC(=O)Nc1ccccc1 | 2.61
CNC(=O)Oc1ccccc1C#N | 0.86
CCOC(=O)CC | 1.21
Clc1cccs1 | 2.54
O=S(=O)(CF)Nc1ccccc1 | 1.35
O=C(Oc1ccccc1)Oc1ccccc1 | 3.28
Cc1cc2ccccc2cn1 | 2.68
O=c1cnn(C2OC(CO)C(O)C2O)c(=O)[nH]1 (stereo unspecified) | -2.14
Clc1ccc2cc[nH]c2c1 | 3.25
CCCCCCCOC(N)=O | 2.36
BrCCCc1ccccc1 | 3.72
CC(=S)Nc1ccccc1 | 1.71
CN[C@H]1CCc2cc(OC)c(OC)c(OC)c2-c2ccc(OC)c(=O)cc21 | 1.37
NCCCCC(=O)O | -2.63
CNS(=O)(=O)c1ccc(N)cc1 | -0.01
Nc1cc([N+](=O)[O-])ccc1C(=O)O | 1.91
c1ccc2[nH]nnc2c1 | 1.44
O=C(c1ccccc1)c1cccc(NS(=O)(=O)C(F)F)c1 | 2.86

SMILES | logP
CN(C)C(=O)Nc1ccc(C(=O)c2ccccc2)cc1 | 2.59
O=[N+]([O-])c1cc2ccccc2nn1 | 0.73
Nc1ccc(OC(=O)c2ccc(N)cc2O)cc1 | 2.04
CCOP(=S)(OCC)O/N=C(\C#N)c1ccccc1 | 4.39
CC(C)CC(=O)NN | -0.31
CCCCC[C@H](O)/C=C/[C@H]1[C@H](O)CC(=O)[C@@H]1C/C=C\CCCC(=O)O | 2.82
CC(=O)Nc1cc(C)c(O)c(C)c1 | 1.11
N#Cc1ccc2cc[nH]c2c1 | 2.38
O=C(Cn1cnc([N+](=O)[O-])n1)NCCO | -1.59
NS(=O)(=O)c1cc2c(cc1C(F)(F)F)NCNS2(=O)=O | 0.36
ON=C1C=CC(=NO)C=C1 | 1.49
Cc1cncc(C)c1 | 1.78
CC(C)c1ccccc1OC(=O)c1ccc(N)cc1O | 4.28
CC(=O)Oc1cccc2ccccc12 | 2.78
COCCOC(=O)c1ccccc1 | 1.78
CCC(C)c1ccccc1O (stereo unspecified) | 3.27
CC1CN1C1=C(F)C(=O)C(N2CC2C)=C(F)C1=O (stereo unspecified) | 1.61
C=CCc1cccc2c(=O)c(C)c(-c3ccccc3)oc12 | 4.67
CC(=O)Oc1ccccc1C(C)C | 2.78
COc1ccc(-c2nc3ccncc3n2C)c(OC)c1 | 2.68
C[Si](C)(C)c1ccccc1 | 4.72

SMILES | logP
O=[N+]([O-])c1ncc[nH]1 | 0.15
N#CCC(=O)c1ccccc1 | 0.97
O=C1C=CC(=NBr)C=C1 | 1.12
OCCOc1c(Br)cc(Br)cc1Br | 3.42
CCC(=O)C1(c2cccc(OC(=O)C(C)(C)C)c2)CCN(C)CC1 | 2.59
O=C(O)c1cc2ccccc2[nH]1 | 2.31
CC(=O)c1ccccc1[N+](=O)[O-] | 1.28
COC=O | 0.03
CNC(=O)Oc1cc(C)c(Cl)cc1Cl | 3
CCOC(=O)C(F)(F)C(F)(F)F | 2.12
CC1Nc2cc(Cl)c(S(N)(=O)=O)cc2S(=O)(=O)N1 (stereo unspecified) | 0.08
CCC1=C(N2CC2)C(=O)C(C)=C(N2CC2)C1=O | 1.35
O=c1[nH]cnc2nc[nH]c12 | -1.11
Cc1ccc2ccccc2n1 | 2.59
C=CCN1CC[C@]23c4c5ccc(O)c4O[C@H]2[C@@H](O)C=C[C@H]3[C@H]1C5 | 1.86
Fc1ccccc1CCl | 2.67
CCC(C)C(NC(C)=O)C(=O)NC(Cc1ccccc1)C(=O)NC(C)C(N)=O (stereo not drawn) (Ac-Ile-Phe-Ala-NH2; configuration not given here) | 0.52
CCC(C)NC(=O)C=C(SC)c1ccccc1 (stereo unspecified) | 3.03
Cc1ccc(C)c2ccccc12 | 4.37
Cc1cc(C)ncn1 | 0.62
CCOC(=O)[C@H](O)[C@@H](O)C(=O)OCC | -0.29

SMILES | logP
O=C(O)c1cc(O)cc(O)c1 | 0.86
O=S1(=O)Nc2ccccc2N1 | 1.12
CCOS(=O)(=O)OCC | 1.14
CNC1CC2CCC1c1ccccc12 (stereo unspecified) | 2.68
COc1cccc(S(C)(=O)=O)c1 | 0.76
O=C(O)c1ccncc1 | 0.32
CC12CCC(=O)C=C1CCC1C2C(O)CC2(C)C1CCC2(O)C(=O)COC(=O)CCCCCC(N)=O (stereo unspecified) | 2.3
CN(C)CCCc1ccco1 | 2.08
c1ccc(-c2cccc(-c3ccccc3)n2)cc1 | 4.82
CON=C(C(=O)NC1C(=O)N2C(C(=O)OC(C)OC(C)=O)=C(COC(N)=O)CSC12)c1ccco1 (stereo unspecified) | 0.89
CCN(CC)c1cc(C(=O)NN)ccn1 | 1.12
CC(=O)NC(Cc1ccc(O)cc1)C(N)=O (stereo unspecified) | -0.87
CCCCCOC(=O)Nc1ccccc1 | 3.8
CCC(=O)OC1(C(C)=O)C(C)CC2C3CCC4=CC(=O)C=CC4(C)C3(F)C(O)CC21C (stereo unspecified) | 3.09
NCCCCCc1cccnc1 | 1.41
CCCOc1cccc(C=C(C(C)=O)C(=O)OCC)c1 | 3.34
c1nnnn1C12CC3CC(CC(C3)C1)C2 | 2.95
CCCCNc1nc(NC(C)C)nc(SC(F)F)n1 | 4.75
